Measured values as given in patent publication US8575349B2, “Derivatives of 1-alkyl-6-oxo-piperidine-3-carboxylic acids and 1-alkyl-5-oxo-pyrrolidine-3-carboxylic acids and their uses as cooling compounds” (International Flavors & Fragrances Inc., priority 2010, dated 2013).

Columns and labels:
Type in all cases: in vivo
[1] = Taste evaluation of the compound in water (cooling effect)
[2] = Hard candy containing the compound: cooling/taste profile over time; conditions: 300 ppm; for overall effect of test candy versus control candy: cherry flavored hard candy; for Profile: hard candy
Protocol: First, the following formulation was prepared: […]
The above formulation was added to a stainless steel pot. With constant mixing, the formulation temperature was raised to 138° C. The pot was then removed from the heat, allowing cool to 120° C. and 0.7 g of flavor containing the ingredients in equal amounts: benzaldehyde, tolyl aldehyde, ethyl acetate, maltol, Davana oil, methyl heptinyl carbonate and 3 g of citric acid was added. The resulting cherry flavored liquid candy was then deposited into molds, and the molds containing the liquid candy were cooled to room temperature, yielding 600 g of finished hard candy. […] A test candy was further prepared using the above recipe modified by adding 0.18 g of 1-(2-isopropyl-5-methyl-cyclohexyl)-4-(pyrrolidine-1-carbonyl)-pyrrolidin-2-one (Structure VI, 300 ppm) or 1-(2-isopropyl-5-methyl-cyclohexyl)-4-(piperidine-1-carbonyl)-pyrrolidin-2-one (Structure VII, 300 ppm).

[3] = Chewing gum containing the compound: cooling/taste profile over time; conditions: for Profile: gum; for overall effect of test gum versus control gum: orange-flavored gum
Protocol: The above formulation was prepared in a Sigma mixer. The resultant chewing gum blend was manufactured into strips of 1 inch in width and 0.1 inches in thickness. The strips were subsequently cut into a length of 3 inches each. […] A test gum was further prepared by adding 1-(2-isopropyl-5-methyl-cyclohexyl)-4-(pyrrolidine-1-carbonyl)-pyrrolidin-2-one (Structure VI, 800 ppm) or 1-(2-isopropyl-5-methyl-cyclohexyl)-4-(piperidine-1-carbonyl)-pyrrolidin-2-one (Structure VII, 1200 ppm).

Which “taste description / cooling effect” value ([1]; 10 ppm in water) does the source give for `COC(=O)C1CC(=O)N(C2CC(C)CCC2C(C)C)C1` (stereo not shown) [Structure I, 1-(2-isopropyl-5-methyl-cyclohexyl)-5-oxo-pyrrolidine-3-carboxylic acid methyl ester] here?
Its value is “mild cooling effect”.

Which “taste description / cooling effect” value ([1]; 10 ppm in water) does the source give for `CC1CCC(C(C)C)C(N2CC(C(=O)O)CC2=O)C1` (stereo not shown) [Structure II, 1-(2-isopropyl-5-methyl-cyclohexyl)-5-oxo-pyrrolidine-3-carboxylic acid] here?
The value was “some cooling effect developed in the back of throat”.

For `CC(C)CNC(=O)C1CC(=O)N(C2CC(C)CCC2C(C)C)C1` (stereo not shown) [Structure III, 1-(2-isopropyl-5-methyl-cyclohexyl)-5-oxo-pyrrolidine-3-carboxylic acid isobutyl-amide], which “taste description / cooling effect” value ([1]; 10 ppm in water) is on record?
The value was “mild cooling effect”.

Which “taste description / cooling effect” value ([1]; 10 ppm in water) does the source give for `CCN(C)C(=O)C1CC(=O)N(C2CC(C)CCC2C(C)C)C1` (stereo not shown) [Structure IV, 1-(2-isopropyl-5-methyl-cyclohexyl)-5-oxo-pyrrolidine-3-carboxylic acid ethyl-methyl-amide] here?
The value was “mild cooling effect”.

For `COC(=O)C1CC(=O)N(C2CCCCC2C)C1` (stereo not shown) [Structure IX, 1-(2-methyl-cyclohexyl)-5-oxo-pyrrolidine-3-carboxylic acid methyl ester], which “taste description / cooling effect” value ([1]; 40 ppm in water) is on record?
Its value is “slight upfront bitterness for ˜20-30 seconds and mild cooling effect that slightly built up in a few minutes”.

For `CC1CCC(C(C)C)C(N2CC(C(=O)N3CCC3)CC2=O)C1` (stereo not shown) [Structure V, 4-(azetidine-1-carbonyl)-1-(2-isopropyl-5-methyl-cyclohexyl)-pyrrolidin-2-one], which “taste description / cooling effect” value ([1]; 40 ppm in water) is on record?
The value was “mild cooling, earthy, off-flavor, not bitter, napthalene, herbaceous, slight tingle effect on the tip of tongue, and garden hose, carrot, astringent, and waxy effect”.

What does the source list for `CC1CCC(C(C)C)C(N2CC(C(=O)N3CCCC3)CC2=O)C1` (stereo not shown) [Structure VI, 1-(2-isopropyl-5-methyl-cyclohexyl)-4-(pyrrolidine-1-carbonyl)-pyrrolidin-2-one]?
overall effect of test candy versus control candy [2]: substantial cooling effect; Profile ([2]; at 0-1 minute): At 0-1 minute: cooling with slight bitterness;; Profile ([2]; at 1-3 minutes): At 1-3 minutes: cooling built up;; Profile ([2]; at 3-5 minutes): At 3-5 minutes: cooling on the roof of mouth;; Profile ([2]; at 5-10 minutes): At 5-10 minutes: cooling with some bitterness;; Profile ([2]; at 10-20 minutes): At 10-20 minutes: cooling with mild bitterness;; Profile ([2]; at 20-30 minutes): At 20-30 minutes: cooling remained.; Profile ([3]; 800 ppm, at 1-3 minutes): At 1-3 minutes: cooling delocalized on the tongue;; Profile ([3]; 800 ppm, at 3-5 minutes): At 3-5 minutes: mild cooling located on the tongue;; Profile ([3]; 800 ppm, at 5-10 minutes): At 5-10 minutes: moderate cooling on the tongue and the roof; Profile ([3]; 800 ppm, at 20-30 minutes): At 20-30 minutes: clean sensation with a little bitterness.; overall effect of test gum versus control gum ([3]; 800 ppm): pleasant cooling effect; taste description / cooling effect ([1]; 10 ppm in water): mild cooling effect with slight bitterness, the cooling effect built up over the time; taste description / cooling effect ([1]; 50 ppm in water): cooling effect with bitterness, a menthol-like burning taste, and a nice built-up cooling taste

For `CC1CCC(C(C)C)C(N2CC(C(=O)N3CCCCC3)CC2=O)C1` (stereo not shown) [Structure VII, 1-(2-isopropyl-5-methyl-cyclohexyl)-4-(piperidine-1-carbonyl)-pyrrolidin-2-one], which “overall effect of test candy versus control candy” value [2] is on record?
Its value is “substantial cooling effect”.

And the Profile ([2]; at 0-1 minute)?
Its Profile is “At 0-1 minute: bitterness;”.

What about the Profile ([2]; at 1-3 minutes) of the same compound?
Its Profile is “At 1-3 minutes: cooling breath, strong cooling;”.

What about the Profile ([2]; at 3-5 minutes) of the same compound?
The Profile was “At 3-5 minutes: intense cooling;”.

What about the Profile ([2]; at 5-10 minutes) of the same compound?
The Profile was “At 5-10 minutes: intense cooling throughout mouth;”.

What about the Profile ([2]; at 10-20 minutes) of the same compound?
Its Profile is “At 10-20 minutes: very strong cooling, almost burning;”.

What about the Profile ([2]; at 20-30 minutes) of the same compound?
The Profile was “At 20-30 minutes: strong and lasting cooling”.

And the Profile ([3]; 1200 ppm, at 0-1 minute)?
Its Profile is “At 0-1 minute: cooling onset, throat and slight tongue irritation,”.

And the Profile ([3]; 1200 ppm, at 1-3 minutes)?
Its Profile is “At 1-3 minutes: cooling and irritation delocalized with some”.

What about the Profile ([3]; 1200 ppm, at 3-5 minutes) of the same compound?
Its Profile is “At 3-5 minutes: full mouth cooling, throughout mouth but not”.

What about the Profile ([3]; 1200 ppm, at 5-10 minutes) of the same compound?
The Profile was “At 5-10 minutes: strong cooling in mouth, concentrated in the”.

What about the Profile ([3]; 1200 ppm, at 10-20 minutes) of the same compound?
Its Profile is “At 10-20 minutes: cooling peaked, consistent without any”.

And the Profile ([3]; 1200 ppm, at 20-30 minutes)?
The Profile was “At 20-30 minutes: strong cooling in mouth and throat,”.

What about the “overall effect of test gum versus control gum” value ([3]; 1200 ppm) of the same compound?
Its value is “pleasant cooling effect”.

What about the “taste description / cooling effect” value ([1]; 40 ppm in water) of the same compound?
Its value is “slight upfront bitterness, herbaceous flavor, and built-up cooling effect”.

With `CC1CCC(C(C)C)C(N2CC(C(=O)N3CCCCCC3)CC2=O)C1` (stereo not shown) [Structure VIII, 4-(azepane-1-carbonyl)-1-(2-isopropyl-5-methyl-cyclohexyl)-pyrrolidin-2-one] as the compound, how does the “taste description / cooling effect” value ([1]; 40 ppm in water) read?
The value was “bitterness and cooling effect and both built up”.

Which “taste description / cooling effect” value ([1]; 40 ppm in water) does the source give for `CC(C)(C)C1CCCCC1N1CC(C(=O)N2CCCC2)CC1=O` (stereo not shown) [Structure X, 1-(2-tert-butyl-cyclohexyl)-4-(pyrrolidine-1-carbonyl)-pyrrolidin-2-one] here?
Its value is “upfront bitterness, quinine, drying, greasy, and burning effect”.

Which “taste description / cooling effect” value ([1]; 40 ppm in water) does the source give for `CC(C)(C)C1CCCCC1N1CC(C(=O)N2CCCCC2)CC1=O` (stereo not shown) [Structure XI, 1-(2-tert-butyl-cyclohexyl)-4-(piperidine-1-carbonyl)-pyrrolidin-2-one] here?
The value was “some bitterness and drying, powdery, and minimal cooling effect”.

For `CC1CCC(C(C)C)C(N2CC(C(=O)N3CCCC3)CCC2=O)C1` (stereo not shown) [Structure XII, 1-(2-isopropyl-5-methyl-cyclohexyl)-5-(pyrrolidine-1-carbonyl)-piperidin-2-one], which “taste description / cooling effect” value ([1]; 40 ppm in water) is on record?
Its value is “slight cooling, and bitter and drying effect”.

For `CC1CCC(C(C)C)C(N2CC(C(=O)N3CCCCC3)CCC2=O)C1` (stereo not shown) [Structure XIII, 1-(2-isopropyl-5-methyl-cyclohexyl)-5-(piperidine-1-carbonyl)-piperidin-2-one], which “taste description / cooling effect” value ([1]; 40 ppm in water) is on record?
Its value is “grapefruit-like bitterness, and very mild cooling and drying effect”.
